Test results from ChEMBL document CHEMBL1129324, “Tyrphostins. 5. Potent inhibitors of platelet-derived growth factor receptor tyrosine kinase: structure-activity relationships in quinoxalines, quinolines, and indole tyrphostins” (J Med Chem, 1996).

Biological target: Platelet-derived growth factor receptor (Mus musculus, UniProt P05622+P26618)
Assay: Inhibitory activity against platelet-derived growth factor receptor tyrosine kinase in Swiss 3T3 cells
Type: cell-based

Cc1cc2nc(O)c(-c3ccccc3)nc2cc1C
IC50: 10 µM

Cc1cc2nc(C)c(-c3ccccc3)nc2cc1C
IC50: > 50 µM

c1ccc(-c2cnc3cc4ccccc4cc3n2)cc1
IC50: 0.9 µM

CCOC(=O)c1nc2cc(C)c(C)cc2nc1-c1ccccc1
IC50: > 50 µM

c1ccc(-c2cnc3ncccc3n2)cc1
IC50: 35 µM

c1ccc2nc(-c3ccsc3)cnc2c1
IC50: > 100 µM

Cc1cc2nc(CP(=O)(O)O)c(-c3ccccc3)nc2cc1C
IC50: > 50 µM

c1coc(-c2cnc3ccccc3n2)c1
IC50: > 100 µM

Cc1cc2nc(CSCCOCCSCc3nc4cc(C)c(C)cc4nc3-c3ccccc3)c(-c3ccccc3)nc2cc1C
IC50: > 50 µM

COc1cc2nc(-c3ccccc3)cnc2cc1O
IC50: 100 µM

COc1cc2ncc(-c3ccccc3)nc2cc1OC
IC50: 0.8 µM

c1ccc(-c2ccc(-c3cnc4ccccc4n3)s2)cc1
IC50: > 100 µM

Cc1cc2nc(-c3ccccn3)c(-c3ccccn3)nc2cc1C
IC50: > 100 µM

COc1cc2nc(O)c(-c3ccccc3)nc2cc1OC
IC50: > 50 µM

Cc1cc2nc(CN(C)C)c(-c3ccccc3)nc2cc1C
IC50: > 50 µM

Cc1cc2nc(CSCc3nc4cc(C)c(C)cc4nc3-c3ccccc3)c(-c3ccccc3)nc2cc1C
IC50: > 50 µM

Cc1ccc(-c2cnc3ccccc3n2)s1
IC50: > 100 µM

Nc1ncnc2ncc(-c3ccccc3)nc12
IC50: > 50 µM

O=C(c1ccccc1)c1ccc2ncc(-c3ccccc3)nc2c1
IC50: 6 µM

c1ccc(-c2nc3ccccc3nc2-c2ccccn2)nc1
IC50: 100 µM

Oc1cc2ncc(-c3ccccc3)nc2cc1O
IC50: > 100 µM

Clc1cc2ncc(-c3ccccc3)nc2cc1Cl
IC50: > 50 µM

Cc1cc2nc(O)c(-c3ccccc3)[n+]([O-])c2cc1C
IC50: > 50 µM

CC(C)CCc1ccc(-c2cnc3ccccc3n2)s1
IC50: > 100 µM

Cc1cc2ncc(-c3ccc(O)c(O)c3)nc2cc1C
IC50: 0.6 µM

Cc1cc2nc(C=O)c(-c3ccccc3)nc2cc1C
IC50: > 50 µM

Cc1cc2nc(C)c(C)nc2cc1C
IC50: > 50 µM

c1coc(-c2nc3ccccc3nc2-c2ccco2)c1
IC50: > 100 µM

c1ccc(-c2nc3ccccc3nc2-c2ccccc2)cc1
IC50: > 50 µM

CCOCc1nc2cc(C)c(C)cc2nc1-c1ccccc1
IC50: > 50 µM

Cc1nc2ccccc2nc1C
IC50: > 100 µM

O=[N+]([O-])c1ccc2ncc(-c3ccccc3)nc2c1
IC50: 25 µM

Cc1cc2nc(CSCCCSCc3nc4cc(C)c(C)cc4nc3-c3ccccc3)c(-c3ccccc3)nc2cc1C
IC50: > 50 µM

Cc1cc2nc3[nH]c4ccc(Br)cc4c3nc2cc1C
IC50: > 50 µM

c1ccc(-c2cnc3ccccc3n2)cc1
IC50: 10 µM

c1csc(-c2cnc3ccccc3n2)c1
IC50: 100 µM

Cc1ccc2ncc(-c3ccccc3)nc2c1
IC50: 90 µM

c1ccc2nc(-c3c[nH]c4ccccc34)cnc2c1
IC50: > 100 µM

O=c1nc2[nH]c3ccccc3nc-2c(=O)[nH]1 [ALLOXAZINE]
IC50: > 50 µM

O=C(O)c1ccc2ncc(-c3ccccc3)nc2c1
IC50: > 50 µM

CCOP(=O)(Cc1nc2cc(C)c(C)cc2nc1-c1ccccc1)OCC
IC50: > 50 µM

Cc1cc2nc(C(=O)O)c(-c3ccccc3)nc2cc1C
IC50: 1 µM

Cc1cc2nc(Cl)c(-c3ccccc3)nc2cc1C
IC50: > 50 µM

Cc1cc2nc(CBr)c(-c3ccccc3)nc2cc1C
IC50: > 50 µM

Cc1nc2ccccc2nc1-c1ccccc1
IC50: > 100 µM
